{"source": "patent US20130274174A1", "about": "“THERAPEUTIC COMBINATION OF DAPTOMYCIN AND PROTEIN SYNTHESIS INHIBITOR ANTIBIOTIC, AND METHODS OF USE” (priority 2011, published 2013)", "system": "S. aureus MW2 (NRS123)", "experiment": "microbe, parasite or virus in culture", "assay_type": "cell-based, Staphylococcus aureus", "conditions": "Staphylococcus aureus", "method": "S. aureus strains MW2 (NARSA collection clinical MRSA isolate, NRS123) and ATCC 33591 (MRSA strain from the American Type Culture Collection) were cultured on Mueller-Hinton II cation adjusted (MHA) medium in 90×90 mm square petri dishes. MHA containing ¼ of the MIC value of TR-700, TR-705, LZD, TIA, CLI, TET, or VAN, TMP/SMX throughout the plate and a continuous linear gradient of DAP across the plate was used to passage MW2. ATCC 33591 was passaged with ¼ of the MIC of a subset of these drugs (TR-700, TMP/SMX, and VAN). A DAP-only control passage group was included for both strains. DAP gradients were created by pouring two layers of media as previously described (Bryson, V., et al. 1952. Microbial selection. Science 116:45-51; Locke, J. B., et al., 2009. Antimicrob. Agents Chemother. 53:5265-5274). Following each passage the leading edge of growth (i.e., most resistant cells) was resuspended in phosphate buffered saline (PBS) to an absorbance of 0.30 OD600 and a 100 μl aliquot containing ˜3.0×10^7 CFU (colony-forming units) was spread on to the proceeding passage plate. The starting maximal DAP concentration was 2 μg/ml and was increased in two-fold increments when the leading edge of growth surpassed the half way point on the plate. A glycerol stock was made from the total cell population for each culture condition for each passage. Thirty serial passages were completed for each treatment group.", "note": "Like-named read-outs stand apart in the source and are kept apart here."}
{"compound": "CN(C)[C@@H]1C(O)=C(C(N)=O)C(=O)[C@@]2(O)C(O)=C3C(=O)c4c(O)cccc4[C@@](C)(O)[C@H]3C[C@@H]12", "note": "[TET, tetracycline]", "values": [{"measurement": "MIC", "setting": "NRS123, passage 0, NRS123 WT", "result": 0.5, "unit": "µg/mL"}, {"measurement": "MIC", "setting": "NRS123, passage 5, selection group DAP", "result": 0.25, "unit": "µg/mL"}, {"measurement": "MIC", "setting": "NRS123, passage 5, selection group DAP + CLI", "result": 0.5, "unit": "µg/mL"}, {"measurement": "MIC", "setting": "NRS123, passage 5, selection group DAP + LZD", "result": 0.5, "unit": "µg/mL"}, {"measurement": "MIC", "setting": "NRS123, passage 5, selection group DAP + TET", "result": 0.25, "unit": "µg/mL"}, {"measurement": "MIC", "setting": "NRS123, passage 5, selection group DAP + TIA", "result": 0.5, "unit": "µg/mL"}, {"measurement": "MIC", "setting": "NRS123, passage 5, selection group DAP + TMP/SMX", "result": 0.125, "unit": "µg/mL"}, {"measurement": "MIC", "setting": "NRS123, passage 5, selection group DAP + TR-700", "result": 0.5, "unit": "µg/mL"}, {"measurement": "MIC", "setting": "NRS123, passage 5, selection group DAP + TR-705", "result": 0.5, "unit": "µg/mL"}, {"measurement": "MIC", "setting": "NRS123, passage 5, selection group DAP + VAN", "result": 0.25, "unit": "µg/mL"}, {"measurement": "MIC", "setting": "NRS123, passage 10, selection group DAP", "result": 0.125, "unit": "µg/mL"}, {"measurement": "MIC", "setting": "NRS123, passage 10, selection group DAP + CLI", "result": 0.5, "unit": "µg/mL"}, {"measurement": "MIC", "setting": "NRS123, passage 10, selection group DAP + LZD", "result": 0.25, "unit": "µg/mL"}, {"measurement": "MIC", "setting": "NRS123, passage 10, selection group DAP + TET", "result": 0.5, "unit": "µg/mL"}, {"measurement": "MIC", "setting": "NRS123, passage 10, selection group DAP + TIA", "result": 0.25, "unit": "µg/mL"}, {"measurement": "MIC", "setting": "NRS123, passage 10, selection group DAP + TMP/SMX", "result": 0.5, "unit": "µg/mL"}, {"measurement": "MIC", "setting": "NRS123, passage 10, selection group DAP + TR-700", "result": 0.5, "unit": "µg/mL"}, {"measurement": "MIC", "setting": "NRS123, passage 10, selection group DAP + TR-705", "result": 0.125, "unit": "µg/mL"}, {"measurement": "MIC", "setting": "NRS123, passage 10, selection group DAP + VAN", "result": 0.25, "unit": "µg/mL"}, {"measurement": "MIC", "setting": "NRS123, passage 15, selection group DAP", "result": 0.25, "unit": "µg/mL"}, {"measurement": "MIC", "setting": "NRS123, passage 15, selection group DAP + CLI", "result": 0.125, "unit": "µg/mL"}, {"measurement": "MIC", "setting": "NRS123, passage 15, selection group DAP + LZD", "result": 0.25, "unit": "µg/mL"}, {"measurement": "MIC", "setting": "NRS123, passage 15, selection group DAP + TET", "result": 0.5, "unit": "µg/mL"}, {"measurement": "MIC", "setting": "NRS123, passage 15, selection group DAP + TIA", "result": 0.25, "unit": "µg/mL"}, {"measurement": "MIC", "setting": "NRS123, passage 15, selection group DAP + TMP/SMX", "result": 0.25, "unit": "µg/mL"}, {"measurement": "MIC", "setting": "NRS123, passage 15, selection group DAP + TR-700", "result": 0.25, "unit": "µg/mL"}, {"measurement": "MIC", "setting": "NRS123, passage 15, selection group DAP + TR-705", "result": 0.25, "unit": "µg/mL"}, {"measurement": "MIC", "setting": "NRS123, passage 15, selection group DAP + VAN", "result": 0.25, "unit": "µg/mL"}, {"measurement": "MIC", "setting": "NRS123, passage 20, selection group DAP", "result": 0.125, "unit": "µg/mL"}, {"measurement": "MIC", "setting": "NRS123, passage 20, selection group DAP + CLI", "result": 0.125, "unit": "µg/mL"}, {"measurement": "MIC", "setting": "NRS123, passage 20, selection group DAP + LZD", "result": 0.25, "unit": "µg/mL"}, {"measurement": "MIC", "setting": "NRS123, passage 20, selection group DAP + TET", "result": 0.25, "unit": "µg/mL"}, {"measurement": "MIC", "setting": "NRS123, passage 20, selection group DAP + TIA", "result": 0.25, "unit": "µg/mL"}, {"measurement": "MIC", "setting": "NRS123, passage 20, selection group DAP + TMP/SMX", "result": 0.25, "unit": "µg/mL"}, {"measurement": "MIC", "setting": "NRS123, passage 20, selection group DAP + TR-700", "result": 0.25, "unit": "µg/mL"}, {"measurement": "MIC", "setting": "NRS123, passage 20, selection group DAP + TR-705", "result": 0.125, "unit": "µg/mL"}, {"measurement": "MIC", "setting": "NRS123, passage 20, selection group DAP + VAN", "result": 0.25, "unit": "µg/mL"}, {"measurement": "MIC", "setting": "NRS123, passage 25, selection group DAP", "result": 0.125, "unit": "µg/mL"}, {"measurement": "MIC", "setting": "NRS123, passage 25, selection group DAP + CLI", "result": 0.125, "unit": "µg/mL"}, {"measurement": "MIC", "setting": "NRS123, passage 25, selection group DAP + LZD", "result": 0.25, "unit": "µg/mL"}, {"measurement": "MIC", "setting": "NRS123, passage 25, selection group DAP + TET", "result": 0.25, "unit": "µg/mL"}, {"measurement": "MIC", "setting": "NRS123, passage 25, selection group DAP + TIA", "result": 0.25, "unit": "µg/mL"}, {"measurement": "MIC", "setting": "NRS123, passage 25, selection group DAP + TMP/SMX", "result": 0.25, "unit": "µg/mL"}, {"measurement": "MIC", "setting": "NRS123, passage 25, selection group DAP + TR-700", "result": 0.25, "unit": "µg/mL"}, {"measurement": "MIC", "setting": "NRS123, passage 25, selection group DAP + TR-705", "result": 0.125, "unit": "µg/mL"}, {"measurement": "MIC", "setting": "NRS123, passage 25, selection group DAP + VAN", "result": 0.25, "unit": "µg/mL"}, {"measurement": "MIC", "setting": "NRS123, passage 30, selection group DAP", "result": 0.25, "unit": "µg/mL"}, {"measurement": "MIC", "setting": "NRS123, passage 30, selection group DAP + CLI", "result": 0.25, "unit": "µg/mL"}, {"measurement": "MIC", "setting": "NRS123, passage 30, selection group DAP + LZD", "result": 0.25, "unit": "µg/mL"}, {"measurement": "MIC", "setting": "NRS123, passage 30, selection group DAP + TET", "result": 0.5, "unit": "µg/mL"}, {"measurement": "MIC", "setting": "NRS123, passage 30, selection group DAP + TIA", "result": 0.5, "unit": "µg/mL"}, {"measurement": "MIC", "setting": "NRS123, passage 30, selection group DAP + TMP/SMX", "result": 0.5, "unit": "µg/mL"}, {"measurement": "MIC", "setting": "NRS123, passage 30, selection group DAP + TR-700", "result": 0.5, "unit": "µg/mL"}, {"measurement": "MIC", "setting": "NRS123, passage 30, selection group DAP + TR-705", "result": 0.25, "unit": "µg/mL"}, {"measurement": "MIC", "setting": "NRS123, passage 30, selection group DAP + VAN", "result": 0.5, "unit": "µg/mL"}, {"measurement": "MIC", "setting": "NRS123, read-out: DAP MIC by the end of the experiment (selection of DAP^ns strains), MW2, passaged with DAP alone or with co-selecting agent at ¼ MIC, CLSI breakpoint", "result": "> 1", "unit": "µg/mL"}]}
